Results published in patent US11746100B2 (GLOBAL BLOOD THERAPEUTICS, INC., priority 2020, dated 2023).

Molecular target: T1, human ferroportin (Homo sapiens, UniProt Q9NP59)
T1 construct: luciferase reporter (read with the Nano-Glo Luciferase Assay System); expressed in transfected cells; host or cells: CHO cells, stably transfected, expression induced with doxycycline
T1 sequence (Q9NP59 1-571): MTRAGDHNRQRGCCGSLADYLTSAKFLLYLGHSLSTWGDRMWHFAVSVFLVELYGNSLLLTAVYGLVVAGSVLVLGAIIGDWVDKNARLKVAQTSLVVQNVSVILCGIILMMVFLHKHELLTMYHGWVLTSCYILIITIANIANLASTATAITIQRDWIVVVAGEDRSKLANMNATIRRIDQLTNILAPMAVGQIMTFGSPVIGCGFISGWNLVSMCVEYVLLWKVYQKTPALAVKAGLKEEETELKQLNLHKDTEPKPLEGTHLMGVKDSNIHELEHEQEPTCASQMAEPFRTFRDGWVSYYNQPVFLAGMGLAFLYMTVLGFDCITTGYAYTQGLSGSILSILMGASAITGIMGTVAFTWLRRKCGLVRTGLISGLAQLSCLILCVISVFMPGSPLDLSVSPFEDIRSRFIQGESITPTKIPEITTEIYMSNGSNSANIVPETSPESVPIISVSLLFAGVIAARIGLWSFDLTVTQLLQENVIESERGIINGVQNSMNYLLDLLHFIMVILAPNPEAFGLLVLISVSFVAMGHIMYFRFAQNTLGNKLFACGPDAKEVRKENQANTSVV
Assay: Biological in-vitro ferroportin internalization assay (luciferase reporter)
Assay type: cell-based
Conditions: average pEC50; stably-transfected CHO cell line expressing human ferroportin tagged to a luciferase reporter; 6 h incubation with test compound
Method: The protocol for this assay is generally as described in WO2018/128828, incorporated herein by reference in its entirety. Functional internalization of ferroportin protein was measured using a stably-transfected CHO cell line expressing the human ferroportin tagged to a luciferase reporter. Cells were plated for 24 h in the presence of ferric ammonium citrate (FAC). Ferroportin protein expression was induced with doxycycline for 24 h. The next day, the compounds were added. Test compounds were dissolved in DMSO. Cells were incubated with the test compounds for 6 h, and subsequently luciferase activity was measured using the Nano-Glo Luciferase Assay System and Glomax (Promega, Madison, Wis.). The average pEC50 was determined for the test compounds.

| Compound | pEC50 |
| --- | --- |
| CN(CC(=O)NC(C)(C)C)c1nc(-c2cc(OCC3(O)CCCCC3)ccn2)nc2c1CCC2 [Compound 396, N-tert-butyl-2-[(2-{4-[(1-hydroxycyclohexyl)methoxy]pyridin-2-yl}-5H,6H,7H-cyclopenta[d]pyrimidin-4-yl)(methyl)amino]acetamide] | 8.5 |
| Cc1ccnc(-c2nc3c(c(N4CCCO[C@@H]5CCC[C@@H]54)n2)CCC3)c1 [Compound 49, 2-{4-[(5aS,8aR)-octahydro-2H-cyclopenta[b][1,4]oxazepin-5-yl]-5H,6H,7H-cyclopenta[d]pyrimidin-2-yl}-4-methylpyridine] | 7.1 |
| CN(CC(=O)NC(C)(C)C)c1nc(-c2cc(OCCN)ccn2)nc2c1CCC2 [Compound 483, 2-({2-[4-(2-aminoethoxy)pyridin-2-yl]-5H,6H,7H-cyclopenta[d]pyrimidin-4-yl}(methyl)amino)-N-tert-butylacetamide] | 7.2 |
| CN(CC(=O)NC(C)(C)C)c1nc(-c2cc(F)ccn2)nc2c1CCC2 [Compound 58, N-tert-butyl-2-{[2-(4-fluoropyridin-2-yl)-5H,6H,7H-cyclopenta[d]pyrimidin-4-yl](methyl)amino}acetamide] | 6.7 |
| CCc1ccnc(-c2nc3c(c(N(C)CC(=O)NC(C)(C)C)n2)CCC3)c1 [Compound 100, N-tert-butyl-2-{[2-(4-ethylpyridin-2-yl)-5H,6H,7H-cyclopenta[d]pyrimidin-4-yl](methyl)amino}acetamide] | 7.5 |
| CN(CC(=O)Nc1cnn(C)c1)c1nc(-c2cc(OCCO)ccn2)nc2c1CCC2 [Compound 296, 2-({2-[4-(2-hydroxyethoxy)pyridin-2-yl]-5H,6H,7H-cyclopenta[d]pyrimidin-4-yl}(methyl)amino)-N-(1-methyl-1H-pyrazol-4-yl)acetamide] | 7.6 |
| COc1ccnc(-c2nc3c(c(N(C)CC(=O)Nc4cccc(F)c4)n2)CCC3)c1 [Compound 138, N-(3-fluorophenyl)-2-{[2-(4-methoxypyridin-2-yl)-5H,6H,7H-cyclopenta[d]pyrimidin-4-yl](methyl)amino}acetamide] | 7.8 |
| Cc1ccnc(-c2nc3c(c(N(C)CC(=O)NC4CCCC4)n2)CCC3)c1 [Compound 64, N-cyclopentyl-2-{methyl[2-(4-methylpyridin-2-yl)-5H,6H,7H-cyclopenta[d]pyrimidin-4-yl]amino}acetamide] | 7.8 |
| COc1ccc2c(c1)CCN(c1nc(-c3ccccn3)nc3c1CCC3)CC2 [Compound 2, 7-methoxy-3-[2-(pyridin-2-yl)-5H,6H,7H-cyclopenta[d]pyrimidin-4-yl]-2,3,4,5-tetrahydro-1H-3-benzazepine] | 6.6 |
| CN(CC(=O)NC(C)(C)C)c1nc(-c2cc(OCC3(O)CCC3)ccn2)nc2c1CCC2 [Compound 388, N-tert-butyl-2-[(2-{4-[(1-hydroxycyclobutyl)methoxy]pyridin-2-yl}-5H,6H,7H-cyclopenta[d]pyrimidin-4-yl)(methyl)amino]acetamide] | 8.2 |
| C[C@H](C(=O)NC(C)(C)C)N(C)c1nc(-c2cc(OCCN(C)C)ccn2)nc2c1CCC2 [Compound 408, (2R)—N-tert-butyl-2-[(2-{4-[2-(dimethylamino)ethoxy]pyridin-2-yl}-5H,6H,7H-cyclopenta[d]pyrimidin-4-yl)(methyl)amino]propanamide] | 8.5 |
| CC(C)(C)NC(=O)CNc1cc(-c2ccccn2)nc2c1CCC2 [Compound 9, N-tert-butyl-2-{[2-(pyridin-2-yl)-5H,6H,7H-cyclopenta[b]pyridin-4-yl]amino}acetamide] | 6.2 |
| CN(CC(=O)N1CCCCCC1)c1nc(-c2cc(OC3COC3)ccn2)nc2c1CCC2 [Compound 358, 1-(azepan-1-yl)-2-[methyl({2-[4-(oxetan-3-yloxy)pyridin-2-yl]-5H,6H,7H-cyclopenta[d]pyrimidin-4-yl})amino]ethan-1-one] | 7.7 |
| C[C@H](C(=O)NC(C)(C)C)N(C)c1nc(-c2cc3cn[nH]c3cn2)nc2c1CCC2 [Compound 183, (2R)—N-tert-butyl-2-[methyl(2-{1H-pyrazolo[3,4-c]pyridin-5-yl}-5H,6H,7H-cyclopenta[d]pyrimidin-4-yl)amino]propanamide] | 8 |
| CN(CC(=O)Nc1ccc(F)cc1)c1nc(-c2cc3cnn(C)c3cn2)nc2c1CCC2 [Compound 313, N-(4-fluorophenyl)-2-[methyl(2-{1-methyl-1H-pyrazolo[3,4-c]pyridin-5-yl}-5H,6H,7H-cyclopenta[d]pyrimidin-4-yl)amino]acetamide] | 7.3 |
| COc1ccnc(-c2nc3c(c(N(C)[C@H](C)C(=O)NC(C)(C)C)n2)CCC3)c1 [Compound 101, (2R)—N-tert-butyl-2-{[2-(4-methoxypyridin-2-yl)-5H,6H,7H-cyclopenta[d]pyrimidin-4-yl](methyl)amino}propanamide] | 8.2 |
| CN(C)CCCc1ccnc(-c2nc3c(c(N(C)CC(=O)NC(C)(C)C)n2)CCC3)c1 [Compound 475, N-tert-butyl-2-[(2-{4-[3-(dimethylamino)propyl]pyridin-2-yl}-5H,6H,7H-cyclopenta[d]pyrimidin-4-yl)(methyl)amino]acetamide] | 7.6 |
| C[C@H](CO)Oc1ccnc(-c2nc3c(c(N(C)CC(=O)NC(C)(C)C)n2)CCC3)c1 [Compound 384, N-tert-butyl-2-{[2-(4-{[(2R)-1-hydroxypropan-2-yl]oxy}pyridin-2-yl)-5H,6H,7H-cyclopenta[d]pyrimidin-4-yl](methyl)amino}acetamide] | 8.1 |
| COc1ccnc(-c2nc3c(c(N(C)CC(=O)N[C@H]4CCC[C@H]4O)n2)CCC3)c1 [Compound 171, N-[(1S,2R)-2-hydroxycyclopentyl]-2-{[2-(4-methoxypyridin-2-yl)-5H,6H,7H-cyclopenta[d]pyrimidin-4-yl](methyl)amino}acetamide] | 7.2 |
| COc1ncc(NC(=O)CN(C)c2nc(-c3cc(OCCO)ccn3)nc3c2CCC3)cn1 [Compound 197, 2-({2-[4-(2-hydroxyethoxy)pyridin-2-yl]-5H,6H,7H-cyclopenta[d]pyrimidin-4-yl}(methyl)amino)-N-(2-methoxypyrimidin-5-yl)acetamide] | 7.4 |
| CN(CC(=O)NC(C)(C)C)c1nc(-c2cc(OCCF)ccn2)nc2c1CCC2 [Compound 241, N-tert-butyl-2-({2-[4-(2-fluoroethoxy)pyridin-2-yl]-5H,6H,7H-cyclopenta[d]pyrimidin-4-yl}(methyl)amino)acetamide] | 8 |
| c1ccc(-c2nc3c(c(N4CCCO[C@@H]5CCC[C@@H]54)n2)CCC3)nc1 [Compound 48, 2-{4-[(5aS,8aR)-octahydro-2H-cyclopenta[b][1,4]oxazepin-5-yl]-5H,6H,7H-cyclopenta[d]pyrimidin-2-yl}pyridine] | 6.8 |
| CN(CC(=O)N1CCCCC1)c1nc(-c2cc(OC3COC3)ccn2)nc2c1CCC2 [Compound 323, 2-[methyl({2-[4-(oxetan-3-yloxy)pyridin-2-yl]-5H,6H,7H-cyclopenta[d]pyrimidin-4-yl})amino]-1-(piperidin-1-yl)ethan-1-one] | 7.5 |
| C[C@@H]1OC[C@@H]1Oc1ccnc(-c2nc3c(c(N(C)CC(=O)NC(C)(C)C)n2)CCC3)c1 (racemic) [Compound 332, N-tert-butyl-2-{methyl[2-(4-{[(2S,3S)-2-methyloxetan-3-yl]oxy}pyridin-2-yl)-5H,6H,7H-cyclopenta[d]pyrimidin-4-yl]amino}acetamide] | 7.8 |
| COc1ccc(NC(=O)CN(C)c2nc(-c3cc(OCCO)ccn3)nc3c2C(C)(C)CC3)cn1 [Compound 363, 2-({2-[4-(2-hydroxyethoxy)pyridin-2-yl]-5,5-dimethyl-5H,6H,7H-cyclopenta[d]pyrimidin-4-yl}(methyl)amino)-N-(6-methoxypyridin-3-yl)acetamide] | 8.3 |
| Cc1ccnc(-c2nc3c(c(N(C)CC(=O)NC4(C)CCOC4)n2)CCC3)c1 (stereo not shown) [Compound 65, 2-{methyl[2-(4-methylpyridin-2-yl)-5H,6H,7H-cyclopenta[d]pyrimidin-4-yl]amino}-N-(3-methyloxolan-3-yl)acetamide] | 7.6 |
| C[C@H](C(=O)NC(C)(C)C)N(C)c1nc(-c2cc(OCCO)ccn2)nc2c1CCC2 [Compound 311, (2R)-N-tert-butyl-2-({2-[4-(2-hydroxyethoxy)pyridin-2-yl]-5H,6H,7H-cyclopenta[d]pyrimidin-4-yl}(methyl)amino)propanamide] | 8.4 |
| COc1ccnc(-c2nc3c(c(N(C)CC(=O)Nc4ccc(C)nc4)n2)CCC3)c1 [Compound 200, 2-{[2-(4-methoxypyridin-2-yl)-5H,6H,7H-cyclopenta[d]pyrimidin-4-yl](methyl)amino}-N-(6-methylpyridin-3-yl)acetamide] | 7.6 |
